Results from PubChem BioAssay (NCI).
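Here, GI50 denotes the concentration required for 50% inhibition of growth. TGI is the concentration that stops growth completely.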

Assays:
Test in all cases: NCI-60 cell line screen, 384-well format
A498 renal = system: A498 renal
A549 NSCLC = system: A549 NSCLC
ACHN renal = system: ACHN renal
BT-549 breast = system: BT-549 breast
CCRF-CEM leukemia = system: CCRF-CEM leukemia
COLO 205 colon = system: COLO 205 colon
DU-145 prostate = system: DU-145 prostate
EKVX NSCLC = system: EKVX NSCLC
HCC-2998 colon = system: HCC-2998 colon
HCT-116 colon = system: HCT-116 colon
HCT-15 colon = system: HCT-15 colon
HL-60(TB) leukemia = system: HL-60(TB) leukemia
HOP-62 NSCLC = system: HOP-62 NSCLC
HOP-92 NSCLC = system: HOP-92 NSCLC
HT29 colon = system: HT29 colon
IGROV1 ovarian = system: IGROV1 ovarian
K-562 leukemia = system: K-562 leukemia
M14 melanoma = system: M14 melanoma
MDA-MB-468 breast = system: MDA-MB-468 breast
NCI-H226 lung = system: NCI-H226 lung
NCI-H23 lung = system: NCI-H23 lung
NCI-H322M lung = system: NCI-H322M lung
NCI-H460 NSCLC = system: NCI-H460 NSCLC
NCI-H522 lung = system: NCI-H522 lung
NCI/ADR-RES ovarian = system: NCI/ADR-RES ovarian
OVCAR-4 ovarian = system: OVCAR-4 ovarian
OVCAR-5 ovarian = system: OVCAR-5 ovarian
OVCAR-8 ovarian = system: OVCAR-8 ovarian
RPMI-8226 leukemia = system: RPMI-8226 leukemia
RXF 393 renal = system: RXF 393 renal
SF-268 CNS = system: SF-268 CNS
SF-295 CNS = system: SF-295 CNS
SF-539 CNS = system: SF-539 CNS
SK-MEL-2 melanoma = system: SK-MEL-2 melanoma
SK-MEL-28 melanoma = system: SK-MEL-28 melanoma
SK-MEL-5 melanoma = system: SK-MEL-5 melanoma
SK-OV-3 ovarian = system: SK-OV-3 ovarian
SN12C renal = system: SN12C renal
SNB-19 CNS = system: SNB-19 CNS
SNB-75 CNS = system: SNB-75 CNS
SR leukemia = system: SR leukemia
SW-620 colon = system: SW-620 colon
T-47D breast = system: T-47D breast
TK-10 renal = system: TK-10 renal
U251 glioblastoma = system: U251 glioblastoma
UACC-257 melanoma = system: UACC-257 melanoma
UACC-62 melanoma = system: UACC-62 melanoma

Cc1cc(F)c(C(=O)Nc2cccc(-c3nncn3C(C)C)n2)cc1-n1cnc(C2CC2)c1
GI50 (A498 renal): 10.1 µM | TGI (A498 renal): > 76.6 µM | GI50 (A549 NSCLC): 8.05 µM | TGI (A549 NSCLC): 66.6 µM | GI50 (ACHN renal): 11.5 µM | TGI (ACHN renal): 34.8 µM | GI50 (BT-549 breast): 11.2 µM | TGI (BT-549 breast): 23.6 µM | GI50 (CCRF-CEM leukemia): 7.73 µM | TGI (CCRF-CEM leukemia): 20.2 µM | GI50 (COLO 205 colon): 3.83 µM | TGI (COLO 205 colon): 12.4 µM | GI50 (DU-145 prostate): 6.87 µM | TGI (DU-145 prostate): 27.8 µM | GI50 (EKVX NSCLC): 5.8 µM | TGI (EKVX NSCLC): 22.1 µM | GI50 (HCC-2998 colon): 16.7 µM | TGI (HCC-2998 colon): 57.2 µM | GI50 (HCT-116 colon): 17.6 µM | TGI (HCT-116 colon): 71.1 µM | GI50 (HCT-15 colon): 17.6 µM | TGI (HCT-15 colon): 45.3 µM | GI50 (HL-60(TB) leukemia): 6.26 µM | TGI (HL-60(TB) leukemia): 18.3 µM | GI50 (HOP-62 NSCLC): 8.04 µM | TGI (HOP-62 NSCLC): 29.3 µM | GI50 (HOP-92 NSCLC): 17.7 µM | TGI (HOP-92 NSCLC): > 82.9 µM | GI50 (HT29 colon): 22 µM | TGI (HT29 colon): > 94.4 µM | GI50 (IGROV1 ovarian): 9.78 µM | TGI (IGROV1 ovarian): 40.5 µM | GI50 (K-562 leukemia): 5.52 µM | TGI (K-562 leukemia): 21.3 µM | GI50 (M14 melanoma): 14.5 µM | TGI (M14 melanoma): 28.7 µM | GI50 (MDA-MB-468 breast): 3.39 µM | TGI (MDA-MB-468 breast): 10.5 µM | GI50 (NCI-H226 lung): 12.6 µM | TGI (NCI-H226 lung): 31.4 µM | GI50 (NCI-H23 lung): 4.62 µM | TGI (NCI-H23 lung): 16.8 µM | GI50 (NCI-H322M lung): 18.8 µM | TGI (NCI-H322M lung): 44.6 µM | GI50 (NCI-H460 NSCLC): 12.9 µM | TGI (NCI-H460 NSCLC): 43 µM | GI50 (NCI-H522 lung): 3.31 µM | TGI (NCI-H522 lung): 13.7 µM | GI50 (NCI/ADR-RES ovarian): 11.1 µM | TGI (NCI/ADR-RES ovarian): 23.6 µM | GI50 (OVCAR-4 ovarian): 17.2 µM | TGI (OVCAR-4 ovarian): 38.5 µM | GI50 (OVCAR-5 ovarian): 23.9 µM | TGI (OVCAR-5 ovarian): > 80.5 µM | GI50 (OVCAR-8 ovarian): 12 µM | TGI (OVCAR-8 ovarian): 25.6 µM | GI50 (RPMI-8226 leukemia): 2.09 µM | TGI (RPMI-8226 leukemia): 5.9 µM | GI50 (RXF 393 renal): 10.3 µM | TGI (RXF 393 renal): 25.2 µM | GI50 (SF-268 CNS): 15 µM | TGI (SF-268 CNS): 47.7 µM | GI50 (SF-295 CNS): 15.4 µM | TGI (SF-295 CNS): 98.9 µM | GI50 (SF-539 CNS): 14.5 µM | TGI (SF-539 CNS): 42.6 µM | GI50 (SK-MEL-2 melanoma): 19.9 µM | TGI (SK-MEL-2 melanoma): 35.5 µM | GI50 (SK-MEL-28 melanoma): 17.8 µM | TGI (SK-MEL-28 melanoma): 35 µM | GI50 (SK-MEL-5 melanoma): 6.96 µM | TGI (SK-MEL-5 melanoma): 19.3 µM | GI50 (SK-OV-3 ovarian): 17.4 µM | TGI (SK-OV-3 ovarian): 38.6 µM | GI50 (SN12C renal): 19.4 µM | TGI (SN12C renal): > 93.6 µM | GI50 (SNB-19 CNS): 22.6 µM | TGI (SNB-19 CNS): > 100 µM | GI50 (SNB-75 CNS): 13.5 µM | TGI (SNB-75 CNS): 27.6 µM | GI50 (SR leukemia): 3.62 µM | TGI (SR leukemia): 11.2 µM | GI50 (SW-620 colon): 13.9 µM | TGI (SW-620 colon): 32.3 µM | GI50 (T-47D breast): 3.42 µM | TGI (T-47D breast): 14.6 µM | GI50 (TK-10 renal): 14.8 µM | TGI (TK-10 renal): > 68.2 µM | GI50 (U251 glioblastoma): 11.9 µM | TGI (U251 glioblastoma): > 81.6 µM | GI50 (UACC-257 melanoma): 16.7 µM | TGI (UACC-257 melanoma): 31.2 µM | GI50 (UACC-62 melanoma): 12.9 µM | TGI (UACC-62 melanoma): 25.9 µM
